From patent US7897182B2, “Composition comprising bamboo extract and the compounds isolated therefrom showing treating and preventing activity for inflammatory and blood circulation disease” (Unigen, Inc., priority 2003, dated 2011)
In brackets after ≈: the same amount, converted by molar mass.

Tests used:
[1] = system: LDL receptor defected mouse; test: Arteriosclerosis lesion area (Oil red O, aortic valve) in LDL defected mouse; format: in vivo; conditions: positive control, lovastatin 4 mg/kg
Procedure: During the experiment, the environment of the cage was maintained to the temperature of 23±2° C. and the relative humidity of […] under the artificial lamp for 12 hours, and less than five mice were bred in each mouse cage providing with free access to water (disinfected distilled water) and normal fatty feed (Harlan 2018S, Indianapolis USA).
Eight-weeks old male LDL receptor defected mouse accumulated to high fat feed were divided into two dose administration groups and one high dosing group of which group consist of six mice per group, Injectable distilled water was used as a negative control group, lovastain well known to be as an atheriosclerosis treating agent was administrated in an amount of 4 mg/kg per body weight as a positive control group, Bamboo was administrated to two treatment group in an amount of 50 and 100 mg/kg per body weight respectively, and one high dosing treatment group in an amount of 500 mg/kg per body weight for 20 weeks by way of compulsory oral administration after weighing the body weight twice a day (See Table 6). […]
The calculation of lesion area was performed by staining the lesion formed at the position between 3rd cervical […] and aortic valve and photocopying and then the lesion area was calculated by using computer-assisted morphometry (TDI microscope Image Analyzer, USA) comparing with control group.

[2] = system: LDL receptor defected mouse; test: Blood lipid in LDL defected mouse on high fat diet; format: in vivo; conditions: lovastatin 4 mg/kg oral
Procedure: Eight-weeks old male LDL receptor defected mouse accumulated to high fat feed were divided into two dose administration groups and one high dosing group of which group consist of six mice per group, Injectable distilled water was used as a negative control group, lovastain well known to be as an atheriosclerosis treating agent was administrated in an amount of 4 mg/kg per body weight as a positive control group, Bamboo was administrated to two treatment group in an amount of 50 and 100 mg/kg per body weight respectively, and one high dosing treatment group in an amount of 500 mg/kg per body weight for 20 weeks by way of compulsory oral administration after weighing the body weight twice a day (See Table 6).
And then blood plasma was isolated by centrifugation at the speed of 11,000 g for 10 minutes and left alone at −70° C. before use. The value of blood lipid was determined by three categories i.e., TC (Total cholesterol), HDL-C (High-density lipoprotein cholesterol) and TG (Triglycerides) at KRIBB in Korea.

HUVEC = test: Cell toxicity test, modified MTT method, HUVEC; format: cell-based, Human
Procedure: The cell toxicity of tricin compound of Example 5 was tested using modified MTT method (J. Immunological Methods, 119, pp 203-210, 1989).
200 μl of HUVEC (2×10^5 cells/ml) on flat bottom 96-well microtiter plates (Nunc, Sweden) were treated with tricin prepared in various concentrations and cultured at 37° C. for 24 hours.
50 μl of MTT solution (1 mg/ml) was added to each well and incubated at 37° C. for 4 hours. And then supernatant was removed.
To detect formazan crystal, 100 μl of DMSO was also added to each well and the colorigenic analysis was performed at 550 nm using microplate reader (Power wave-XS, Bio-Tek, USA).

iNOS gene expression = iNOS gene expression in LPS-treated RAW 264.7 cells (RT-PCR); format: cell-based, Murine; conditions: for Inhibition of Gene expression (%) (iNOS): LPS, 24 hours
Procedure: To investigate the inhibiting effect on gene expression, the extract or compound of the present invention was treated to the cell and the RNA extracted therefrom was used in the RT-PCR to evaluate the quantitative gene expression. […] And RNA was extracted by conventional extraction method using Trizol reagent (Gibco BRL) to use in the following reverse transcription-polymerase chain reaction. RT-PCR was performed according to the RT reaction (25° C. 10 min, 48° C. 30 min, 95° C. 5 min, 4° C. 10 min; 1 cycle) and subsequent PCR (50° C. 2 min, 95° C. 10 min, 95° C. 15 sec, 60° C. 1 min, 40 cycles) method well known in the art. As an internal control, 18S ribosomal RNA was used.

RAW 264.7 cells = test: Cell viability at the tricin concentrations of the NO test (Table 9)
NO production = test: Inhibition of NO production in LPS-treated RAW 264.7 cells (Griess reagent); format: cell-based, Murine
Procedure: Murine macrophage cell line RAW 264.7 cell (ATCC, Rockville, Md., USA) were grown in DMEM (Gibco BRL Co., Ltd., USA), supplemented with 2.0 mM L-arginine, 100 μg/ml penicillin-streptomycin and 10% fetal bovine serum at 37° C. in 5% CO2 and 95% air condition in humidified incubator.
To test the inhibiting activity of bamboo extract and the compound isolated therefrom on nitric oxide (NO), which is one of inflammatory factors, the increase of NO was determined in the cells treated with extract or compound of the present invention.
200 μl of RAW 264.7 cells (1×10^6 cells/ml) were seeded onto each well of 96-well microtiter plate (Nunc, Sweden) and incubated for 3 hours in DMEM media containing 10% FBS. […]
And then 100 μl of cell supernatant of each well was transferred to new 96 well plate and 50 μl of Griess reagent (0.1% N-(1-naphtyl)ethylenediamine 2HCl, 1% sulfanilamide in 5% conc. H3PO4 in H2O) was added thereto followed by incubating for 10 mins at R.T. The absorbance was measured at 540 or 550 nm using ELISA reader (Power wave-XS, Bio-Tek, USA).

eNOS gene expression = test: eNOS mRNA expression in HUVEC (quantitative PCR); format: cell-based, Human; conditions: for mRNA expression (fold), eNOS: HUVEC, control = 1
Procedure: (§1) RNA was isolated from HUVEC cell by Rneasy mini kit (cat#74103, Qiagen Co.) according to the manufacturer's instruction. And RT-PCT reaction was performed by using quantitative PCR method (SDS 7700, Applied biosystems Co., U.S.A.).
(§2) 5 μl of cDNA product obtained in the reverse transcription (RT) was aliquoted into each well of 96-well plate and then the mixture containing 5.6 mM MgCl2, 1×PCR buffer, 2 mM dNTP, 0.05% gelatin, 1 μM of a pair of each target gene primer or 0.16 μM of house keeping gene primer, 0.5 μM of target gene probe or 0.025 μM of housekeeping gene probe, 1.25 U of Taq polymerase was added thereto for polymerase chain reaction (PCR) (50° C. 2 min, 95° C. 10 min, 95° C. 15 sec, 60° C. 1 min, 40 cycles).
(§3) As the result, final cT value was read and calculated.

u-PA gene expression = test: u-PA mRNA expression in HUVEC (quantitative PCR); format: cell-based, Human; conditions: for mRNA expression (fold), u-PA: HUVEC, control = 1
Procedure: as §1, §2, §3

VEGF gene expression = test: VEGF mRNA expression in HUVEC (quantitative PCR); format: cell-based, Human; conditions: for mRNA expression (fold), VEGF: HUVEC, control = 1
Procedure: as §1, §2, §3

[3] = Mus musculus, RAW264.7, read-out: NO inhibition rate (%)

CC[C@H](C)C(=O)O[C@H]1C[C@@H](C)C=C2C=C[C@H](C)[C@H](CC[C@@H]3C[C@@H](O)CC(=O)O3)[C@H]21 [Lovastatin, lovastatin]
inhibition of the formation of arteriosclerosis compared with control group [1]: about 47%
HDL-C [2]: 25.00 ± 7.07
LDL-C [2]: 3485.00 ± 304.06
TC [2]: 3750.00 ± 42.43
TG [2]: 300.00 ± 14.14

O=C(O)/C=C/c1ccc(O)cc1 [p-coumaric acid]
cellular toxicity, in words (HUVEC): no cellular toxicity

COc1cc(/C=C/C(=O)CC(=O)/C=C/c2ccc(O)c(OC)c2)ccc1O [Curcumin, curcumin]
Comparative iNOS expression (% of control, DMSO) (iNOS gene expression; 0.032 μg/ml): 80.5 % of control
Inhibition of Gene expression (%) (iNOS) (iNOS gene expression; 0.032 μg/ml): 40%
Comparative iNOS expression (% of control, DMSO) (iNOS gene expression; 0.16 μg/ml): 75.7 % of control
Inhibition of Gene expression (%) (iNOS) (iNOS gene expression; 0.16 μg/ml): 40%
Comparative iNOS expression (% of control, DMSO) (iNOS gene expression; 0.8 μg/ml): 64.4 % of control
Inhibition of Gene expression (%) (iNOS) (iNOS gene expression; 0.8 μg/ml): 40%
Comparative iNOS expression (% of control, DMSO) (iNOS gene expression; 4 μg/ml): 49.9 % of control
Inhibition of Gene expression (%) (iNOS) (iNOS gene expression; 4 μg/ml): 90%
Inhibition of Gene expression (%) (iNOS) (iNOS gene expression; 12.5 μg/ml): 90%
Comparative iNOS expression (% of control, DMSO) (iNOS gene expression; 20 μg/ml): 1.3 % of control
IC50 (iNOS gene expression; Mus musculus, RAW264.7, calculated from the expression data, read-out: IC50 (μg/ml) on iNOS gene expression): 5.3 µg/mL (≈ 14.4 µM)
concentration at which iNOS gene expression is inhibited by 90% (iNOS gene expression; real time-gene expression analysis): 4 µg/mL

COc1cc(-c2cc(=O)c3c(O)cc(O)cc3o2)cc(OC)c1O [tricin]
toxicity at the active concentrations, in words (RAW 264.7 cells; 25, 12.5 and 6.5 μg/ml): no toxicity
Cell viability (%) (RAW 264.7 cells; tricin 1.625 μg/ml): 126%
Cell viability (%) (RAW 264.7 cells; tricin 3.25 μg/ml): 99%
Cell viability (%) (RAW 264.7 cells; tricin 6.5 μg/ml): 96%
Cell viability (%) (RAW 264.7 cells; tricin 12.5 μg/ml): 92%
Cell viability (%) (RAW 264.7 cells; tricin 25 μg/ml): 80%
Cell viability (%) (RAW 264.7 cells; tricin 50 μg/ml): 49%
NO inhibition, in words (NO production; 25, 12.5 and 6.5 μg/ml): strong NO inhibition rate
inhibition at 1.625 µg/mL (NO production; [3]): 25.9 ± 0.006%
inhibition at 3.25 µg/mL (NO production; [3]): 38.1 ± 0.005%
inhibition at 6.5 µg/mL (NO production; [3]): 52 ± 0.015%
inhibition at 25 µg/mL (NO production; [3]): 74.6 ± 0.009%
inhibition at 50 µg/mL (NO production; [3]): 49.7 ± 0.007%
inhibition at 12.5 µg/mL (NO production; Mus musculus, RAW264.7, tricin 12.5 μg/ml, read-out: NO inhibition rate (%)): 71.2 ± 0.003%
cellular toxicity (HUVEC; HUVEC, 5 μg/ml, 24 hours, MTT): 51%
expression of eNOS in HUVEC, in words (eNOS gene expression): increased
mRNA expression (fold), eNOS (eNOS gene expression; tricin 0.5 μg/ml): 3.024 fold
mRNA expression (fold), eNOS (eNOS gene expression; tricin 1.0 μg/ml): 4.711 fold
mRNA expression (fold), eNOS (eNOS gene expression; tricin 5.0 μg/ml): 0.452 fold
expression of u-PA gene in HUVEC, in words (u-PA gene expression): increased
mRNA expression (fold), u-PA (u-PA gene expression; tricin 0.5 μg/ml): 1.619 fold
mRNA expression (fold), u-PA (u-PA gene expression; tricin 1.0 μg/ml): 1.103 fold
mRNA expression (fold), u-PA (u-PA gene expression; tricin 5.0 μg/ml): 2.962 fold
expression of VEGF in HUVEC, in words (VEGF gene expression): increased
mRNA expression (fold), VEGF (VEGF gene expression; tricin 0.5 μg/ml): 2.046 fold
mRNA expression (fold), VEGF (VEGF gene expression; tricin 1.0 μg/ml): 1.469 fold
mRNA expression (fold), VEGF (VEGF gene expression; tricin 5.0 μg/ml): 1.545 fold
